Measured values published in article PMC9719540, “Synthesis of an amphiphilic vancomycin aglycone derivative inspired by polymyxins: overcoming glycopeptide resistance in Gram-positive and Gram-negative bacteria in synergy with teicoplanin in vitro” (Scientific Reports, 2022).
Structures can show the parent of a compound that is named as a salt.

Assays:
[1] = system: Acinetobacter baumannii ATCC BAA1605; assay: Antibacterial activity (MIC); type: cell-based; conditions: ATCCBAA1605; Acinetobacter baumannii ATCC BAA1605; read-out: MIC
Method: (§1) The routine antibacterial evaluations were carried out as it was described in our previous publication. Antimicrobial synergy was determined by evaluating the fractional inhibitory concentration (FIC) index and was characterized by a conventional checkerboard assay. Bacteria grown to mid-logarithmic phase in MHB were pre-incubated with serially diluted concentrations of teicoplanin or vancomycin and compound 14. The sum of the FICs (ΣFIC) was calculated with the equation ΣFIC = FICA + FICB = (CA/MICA) + (CB/MICB), where MICA and MICB are the MICs of antimicrobial A and B alone, respectively, and CA and CB are the inhibitory concentrations of the drugs when combined, respectively. Synergy was defined as a ΣFICs ≤ 0.5 and additive activity was defined as a ΣFICs > 0.5 ≤ 1.0.

[2] = system: Bacillus subtilis ATCC 6633; assay: Antibacterial activity (MIC); type: cell-based; conditions: ATCC6633; Bacillus subtilis ATCC 6633; read-out: MIC
Method: as §1

[3] = system: Enterococcus faecalis 15376 VanA; assay: Antibacterial activity (MIC); type: cell-based
Method: as §1

[4] = system: Enterococcus faecalis ATCC 29212; assay: Antibacterial activity (MIC); type: cell-based
Method: as §1

[5] = system: Enterococcus faecalis ATCC 51299 VanB; assay: Antibacterial activity (MIC); type: cell-based; conditions: ATCC51299; Enterococcus faecalis ATCC 51299 VanB; read-out: MIC
Method: as §1

[6] = system: Escherichia coli ATCC 25218; assay: Antibacterial activity (MIC); type: cell-based; conditions: ATCC25218; Escherichia coli ATCC 25218; read-out: MIC
Method: as §1

[7] = system: Klebsiella pneumoniae ST258 clone K 160/09; assay: Antibacterial activity (MIC); type: cell-based; conditions: Klebsiella pneumoniae ST258 clone K 160/09; read-out: MIC
Method: as §1

[8] = system: Pseudomonas aeruginosa ATCC 27853; assay: Antibacterial activity (MIC); type: cell-based; conditions: ATCC27853; Pseudomonas aeruginosa ATCC 27853; read-out: MIC
Method: as §1

[9] = system: Staphylococcus aureus MRSA ATCC 33591; assay: Antibacterial activity (MIC); type: cell-based; conditions: Staphylococcus aureus MRSA ATCC 33591; read-out: MIC
Method: as §1

[10] = system: Staphylococcus aureus MSSA ATCC 29213; assay: Antibacterial activity (MIC); type: cell-based; conditions: Staphylococcus aureus MSSA ATCC 29213; read-out: MIC
Method: as §1

[11] = system: Staphylococcus epidermidis ATCC 35984 biofilm; assay: Antibacterial activity (MIC); type: cell-based; conditions: ATCC35984; Staphylococcus epidermidis ATCC 35984 biofilm; read-out: MIC
Method: as §1

[12] = system: Staphylococcus epidermidis mecA; assay: Antibacterial activity (MIC); type: cell-based; conditions: Staphylococcus epidermidis mecA; read-out: MIC
Method: as §1

[13] = system: Acinetobacter baumannii ATCC BAA1605; assay: Checkerboard assay, combined susceptibility (FIC index); type: cell-based
Method: (§2) To determine the activity profile of teicoplanin and vancomycin in combination with compound 14, combined susceptibility tests were perfomed against […] Gram negative strains including Escherichia coli, Pseudomonas aeruginosa, Acinetobacter baumannii and Klebsiella pneumoniae bacteria. The combined effects of compound 14 and the glycopeptide antibiotics were determined by conventional checkerboard assays (images of the chequerboard assay for synergistic combinations are shown in Supplementary Information S1).
as §1

[14] = system: Escherichia coli ATCC 25218; assay: as above; type: cell-based
Method: as §2, §1

[15] = system: Klebsiella pneumoniae ST258 clone K 160/09; assay: as above; type: cell-based
Method: as §2, §1

[16] = system: Pseudomonas aeruginosa ATCC 27853; assay: as above; type: cell-based
Method: as §2, §1

Caco-2 cells [17] = assay: MTT cytotoxicity (cell viability); type: cell-based, human; conditions: MTT, 72 h
Method: (§3) Human Caco-2 intestinal epithelial cells were obtained from European Collection of Cell Cultures (ECACC, UK) and grown routinely in Dulbecco’s Minimum Essential Medium (DMEM), supplemented with 10% fetal bovine serum (FBS), 1% non-essential amino acid and 1% penicillin–streptomycin solution.
(§4) In cell viability experiments, 1 × 10^4 hCMEC/D3 or Caco-2 cells/well were seeded on 96-weel plates. After 24 h of incubation, cells were treated with test solutions in different concentrations. The stock solution of the test molecule was dissolved in DMSO and further diluted with cell culture medium to prepare test solutions. […] The control group received culture medium. Cells were incubated with the test solutions for 72 h at 37 °C in an atmosphere of 5% CO2, and test solutions were replaced with 0.05 mg/ml 3-(4,5-dimethylthiazol-2-yl)-2,5-diphenyltetrazolium bromide (MTT) solutions prepared in PBS. Cells were incubated with MTT solutions for 4 h at 37 °C and the formed dark blue formazan crystals were dissolved in acidic isopropanol (isopropanol: 1.0 N hydrochloric acid = 25:1). The absorbance was measured at 570 nm against a 690 nm reference wavelength with a Thermo Fisher Multiskan Go microplate reader (Thermo Fisher, Waltham, MA, USA). Cell viability was expressed as the percentage of the untreated control and IC50 values were calculated by GraphPad Prism 7 software (GraphPad Software Inc., San Diego, CA, USA).

hCMEC/D3 cells [18] = assay: MTT cytotoxicity (cell viability); type: cell-based, human; conditions: MTT, 72 h
Method: (§5) The human immortalized hCMEC/D3 cells (Merck KGaA, Darmstadt, Germany, Cat. # SCC066) were cultured in EndoGRO-MV Complete Culture Media (supplemented with the components of the kit and fibroblast growth factor 2 (FGF-2) at 1 ng/mL final concentration).
as §4

Caco-2 cells [19] = assay: MTT cytotoxicity of combinations, checkerboard configuration; type: cell-based, human; conditions: teicoplanin : compound 14 32:2 µg/mL
Method: as §3
as §4, with “in PBS. […] The absorbance” for “in PBS. Cells were incubated with MTT solutions for 4 h at 37 °C and the formed dark blue formazan crystals were dissolved in acidic isopropanol (isopropanol: 1.0 N hydrochloric acid = 25:1). The absorbance”, “CA, USA). […]” for “CA, USA).”

hCMEC/D3 cells [20] = assay: as above; type: cell-based, human
Method: as §5
as §4, with “CA, USA). […]” for “CA, USA).”

Question: For `CCCCCCCCCC(=O)N[C@H](CC(C)C)C(=O)N[C@H]1C(=O)N[C@@H](CC(N)=O)C(=O)N[C@H]2C(=O)N[C@H]3C(=O)N[C@H](C(=O)N[C@H](C(=O)NCCN)c4cc(OCCN)cc(OCCN)c4-c4cc3ccc4OCCN)[C@H](O)c3ccc(c(Cl)c3)Oc3cc2cc(c3OCCN)Oc2ccc(cc2Cl)[C@H]1O` [Compound 14, Tetraaminoethyl N-decanoyl norvancomycin aglycone aminoethyl amide trifluoroacetate salt], which MIC [1] is on record?
Answer: 128 µg/mL

Question: And the MIC [2]?
Answer: 4 µg/mL

Question: And the MIC ([3]; Enterococcus faecalis 15376 VanA, read-out: MIC)?
Answer: 8 µg/mL

Question: And the “times more potent than vancomycin (MIC ratio)” value ([3]; resistant VanA E. faecalis)?
Answer: 32 times

Question: What about the MIC ([4]; ATCC29212, Enterococcus faecalis ATCC 29212, read-out: MIC) of the same compound?
Answer: 16 µg/mL

Question: And the “times less active than vancomycin (MIC ratio)” value ([4]; vancomycin sensitive E. faecalis ATCC 29212)?
Answer: 16 times

Question: And the MIC [5]?
Answer: 32 µg/mL

Question: And the MIC [6]?
Answer: 128 µg/mL

Question: What about the MIC [7] of the same compound?
Answer: 256 µg/mL

Question: What about the MIC [8] of the same compound?
Answer: 128 µg/mL

Question: And the MIC [9]?
Answer: 8 µg/mL

Question: And the MIC [10]?
Answer: 8 µg/mL

Question: And the MIC [11]?
Answer: 4 µg/mL

Question: What about the MIC [12] of the same compound?
Answer: 2 µg/mL

Question: What about the FIC index ([13]; 14 combined with teicoplanin) of the same compound?
Answer: 0.2656

Question: And the FIC index ([13]; 14 combined with vancomycin)?
Answer: 0.75

Question: What about the MIC ([13]; ATCCBAA1605, checkerboard, read-out: MIC of 14 alone) of the same compound?
Answer: 128 µg/mL

Question: And the “MIC of 14 in comb.” value ([13]; combined with teicoplanin)?
Answer: 2 µg/mL

Question: And the “MIC of 14 in comb.” value ([13]; combined with vancomycin)?
Answer: 32 µg/mL

Question: What about the FIC index ([14]; 14 combined with teicoplanin) of the same compound?
Answer: 0.2578

Question: And the FIC index ([14]; 14 combined with vancomycin)?
Answer: 0.5078

Question: What about the MIC ([14]; ATCC25218, checkerboard, read-out: MIC of 14 alone) of the same compound?
Answer: 256 µg/mL

Question: What about the “MIC of 14 in comb.” value ([14]; combined with teicoplanin) of the same compound?
Answer: 32 µg/mL

Question: And the “MIC of 14 in comb.” value ([14]; combined with vancomycin)?
Answer: 64 µg/mL

Question: And the Combined effect ([15]; 14 combined with teicoplanin)?
Answer: neither synergy nor additive activity and None

Question: And the Combined effect ([15]; 14 combined with vancomycin)?
Answer: neither synergy nor additive activity and None

Question: What about the MIC ([15]; checkerboard, read-out: MIC of 14 alone) of the same compound?
Answer: 256 µg/mL

Question: What about the “MIC of 14 in comb.” value ([15]; combined with teicoplanin) of the same compound?
Answer: 256 µg/mL

Question: What about the “MIC of 14 in comb.” value ([15]; combined with vancomycin) of the same compound?
Answer: 256 µg/mL

Question: And the FIC index ([16]; 14 combined with teicoplanin)?
Answer: 0.375

Question: And the FIC index ([16]; 14 combined with vancomycin)?
Answer: 0.5625

Question: And the MIC ([16]; ATCC27853, checkerboard, read-out: MIC of 14 alone)?
Answer: 256 µg/mL

Question: What about the “MIC of 14 in comb.” value ([16]; combined with teicoplanin) of the same compound?
Answer: 32 µg/mL

Question: What about the “MIC of 14 in comb.” value ([16]; combined with vancomycin) of the same compound?
Answer: 64 µg/mL

Question: And the IC50 (Caco-2 cells [17])?
Answer: > 100 µM

Question: What about the “IC50 (cytotoxicity)” value (Caco-2 cells [17]) of the same compound?
Answer: > 206.86 µg/mL

Question: What about the IC50 (hCMEC/D3 cells [18]) of the same compound?
Answer: 56.2 ± 7.74 µM

Question: What about the “IC50 (cytotoxicity)” value (hCMEC/D3 cells [18]) of the same compound?
Answer: 116.29 ± 16 µg/mL

Question: What about the toxicity of combination (Caco-2 cells [19]) of the same compound?
Answer: not toxic

Question: And the cell viability (hCMEC/D3 cells [20]; teicoplanin : compound 14 2:32 µg/mL, percentage of untreated control)?
Answer: 81.4%

Question: What about the toxicity of combination (hCMEC/D3 cells [20]; teicoplanin : compound 14 32:2 µg/mL) of the same compound?
Answer: not toxic
